This test addresses T1, MAL^TIR (Homo sapiens, UniProt P58753).
T1 construct: MAL (residues 79–221); 6xHis; made in house; host or cells: E. coli BL21 (DE3)
Kind of test: T‐Surf phage library (P8 and P3) selection against MAL^TIR, four rounds, NGS read counts. The class given is binding. To be noted: for P8_MAL Rank (after) / P8_MAL Rank (before): P8 library; for P3_MAL Rank (after) / P3_MAL Rank (before): P3 library. Put shortly: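 Four panning rounds on TIR domain adsorbed at 5 µg mL^−1; binding 1 h at 20–22 °C, elution with 100 mM HCl. Output: NGS read counts of round‐4 pools versus naïve library.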

The mark [1] stands for this setting: P8_MAL: rank by count after grouping.
[2] abbreviates: P8_MAL: rank by count before grouping.
The mark [3] stands for this setting: selection against MAL TIR, rank by count after grouping.
[4] abbreviates: selection against MAL TIR, rank by count before grouping.
Setting [5] is: 4R selection against MAL, rank after grouping.
Setting [6] is: 4R selection against MAL, rank before grouping.
Setting [7] is: selection against MAL, rank by count after grouping.
[8] abbreviates: selection against MAL, rank by count before grouping.
Setting [9] is: selection against MAL, rank after grouping.
Where [10] appears, read: selection against MAL, rank before grouping.
The mark [11] stands for this setting: P3_MAL: rank by count after grouping.
[12] abbreviates: P3_MAL: rank by count before grouping.

T1 sequence (P58753 79-221): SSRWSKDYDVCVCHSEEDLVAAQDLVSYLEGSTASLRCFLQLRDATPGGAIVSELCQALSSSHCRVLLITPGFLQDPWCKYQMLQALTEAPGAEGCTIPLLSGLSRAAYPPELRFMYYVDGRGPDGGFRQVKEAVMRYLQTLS

As to KLCWEKFKCFLPSLSR, the “Rank (after)” value under setting [1] is reported as 404. In addition, the “Rank (before)” value under setting [2] is reported as 2727.
For KLFQQWIELHLHQLHL, the “Rank (after)” value under setting [1] is given as 436. In addition, under setting [2], the “Rank (before)” value was 2724.
With KLFWAICIMRWCRRAF, the “Rank (after)” value under setting [1] worked out at 175. For the same sequence, the “Rank (before)” value under setting [2] is 1070.
Take KLFWEKFKFFLPTPSR: the “P8_MAL Rank (after)” value under setting [3] stood at 201. The “P8_MAL Rank (before)” value under setting [4] turned out to be 2708.
Consider KLFWEKFKFFRPSLSC, for which the “P8_MAL Rank (after)” value under setting [3] is 226. The “P8_MAL Rank (before)” value under setting [4] was found to be 2709.
For the sequence KLFWEKLKLFLPSLSR, under setting [5], the “P8_MAL Rank (after)” value came out at 657. Besides, the “P8_MAL Rank (before)” value under setting [6] worked out at 2687.
Consider KLIQGGCLYRLLKIEQ, for which the “Rank (after)” value under setting [1] was 421. The “Rank (before)” value under setting [2] was determined as 2752.
In the case of KLIQGWFLYRLMQIEQ, the “P8_MAL Rank (after)” value under setting [7] amounted to 707. Besides, under setting [8], the “P8_MAL Rank (before)” value worked out at 2749.
For KLLWEKCTFFLPSLSR, under setting [1], the “Rank (after)” value was 429. Also, the “Rank (before)” value under setting [2] came out at 2726.
Turning to KLLWVKFKFFLPSLSR, the “P8_MAL Rank (after)” value under setting [3] is 211. Further, the “P8_MAL Rank (before)” value under setting [4] turned out to be 2730.
On to KLQECRDTLRKIADFF, for which the “P3_MAL Rank (after)” value under setting [9] is given as 494. Further, the “P3_MAL Rank (before)” value under setting [10] was 3627.
As for KLQEWRDALTAAANLSGW, the “P3_MAL Rank (after)” value under setting [5] is given as 600. Further, the “P3_MAL Rank (before)” value under setting [6] was 3631.
Take KLRAWRDALRNIANIF: the “Rank (after)” value under setting [11] was 428. Moreover, under setting [12], the “Rank (before)” value worked out at 3626.
Turning to KMKYWKDALYDASNLS, under setting [9], the “P3_MAL Rank (after)” value was 510. In addition, under setting [10], the “P3_MAL Rank (before)” value was 3703.
Consider KMQKWKDALTKVASL, for which the “P3_MAL Rank (after)” value under setting [5] is 673. Further, the “P3_MAL Rank (before)” value under setting [6] turned out to be 3697.
On to KMQKWKDALYEAAKLG, for which the “P3_MAL Rank (after)” value under setting [3] worked out at 250. Besides, the “P3_MAL Rank (before)” value under setting [4] was found to be 3687.
With KMQKWKDALYEAAN, the “P3_MAL Rank (after)” value under setting [7] turned out to be 710. Also, under setting [8], the “P3_MAL Rank (before)” value turned out to be 3685.
Take KMQKWKDALYEAANE: the “P3_MAL Rank (after)” value under setting [5] is 614. Besides, the “P3_MAL Rank (before)” value under setting [6] is 3674.
As for KMQKWKDALYEAANPT, the “P3_MAL Rank (after)” value under setting [7] was 734. The “P3_MAL Rank (before)” value under setting [8] is 3683.
In the case of KMQKWKEALHQFHSWV, under setting [11], the “Rank (after)” value is given as 108. Besides, the “Rank (before)” value under setting [12] turned out to be 233.
KMQQWQDALYEAANLS: the “P3_MAL Rank (after)” value under setting [7] was determined as 691. The “P3_MAL Rank (before)” value under setting [8] is given as 3654.
As to KNLFHELVIKNIRTFM, the “P3_MAL Rank (after)” value under setting [7] worked out at 696. The “P3_MAL Rank (before)” value under setting [8] was 3747.
With KNLFNELVRKNLRTFM, the “Rank (after)” value under setting [11] is 458. Under setting [12], the “Rank (before)” value came out at 3753.
With KNLFNELVSKNIRTFM, under setting [1], the “Rank (after)” value is 116. In addition, the “Rank (before)” value under setting [2] is on record as 732.
Consider KNLFNEMVSKNIRTYM, for which the “P3_MAL Rank (after)” value under setting [9] turned out to be 567. Also, the “P3_MAL Rank (before)” value under setting [10] amounted to 3780.
KNLFYDLVSKNIRTFM: the “P3_MAL Rank (after)” value under setting [7] amounted to 712. In addition, under setting [8], the “P3_MAL Rank (before)” value was 3473.
KNVRLARSVRKNGVP: under setting [7], the “P3_MAL Rank (after)” value worked out at 697. The “P3_MAL Rank (before)” value under setting [8] is given as 3474.
With KPSVSGPEKSWHFYL, the “P3_MAL Rank (after)” value under setting [5] was 660. The “P3_MAL Rank (before)” value under setting [6] was found to be 3467.
For KQWLNAPTAAANLSGW, in that order: 664 and 3635.
With KRFEDRMNKVLEWKAA, under setting [7], the “P8_MAL Rank (after)” value was determined as 698. The “P8_MAL Rank (before)” value under setting [8] was 2674.
With KRFWERLRYMLPHSSL, the “P3_MAL Rank (after)” value under setting [3] came to 242. The “P3_MAL Rank (before)” value under setting [4] is listed as 3466.
Take KRISEQLRPALNVRRP: under setting [5], the “P3_MAL Rank (after)” value came out at 665. Further, the “P3_MAL Rank (before)” value under setting [6] came to 3633.
Turning to KSILDTEARIWAGVR, under setting [7], the “P3_MAL Rank (after)” value is on record as 695. Also, the “P3_MAL Rank (before)” value under setting [8] is 3728.
With KSILDTEARIWGWLFA, the “P3_MAL Rank (after)” value under setting [3] is 248. Also, under setting [4], the “P3_MAL Rank (before)” value amounted to 3718.
